Measurements from patent US7494976B2, “Caveolin peptides and their use as therapeutics” (Yale University, priority 2000, dated 2009).
Entries after “also recorded” stand apart in the source; their conditions may differ. Ends that are not written are not given here. Peptide text beside a SMILES is read from it.

Tests used:
mouse aorta = assay: Uptake of biotinylated peptides into the vessel wall of mouse aorta; conditions: biotinylated peptides 100 μM, twenty hours, HRP staining
Procedure: The uptake of AP-Cav into the vessel wall was examined next. A biotinylated version of AP-Cav and AP-Cav-X was synthesized. After twenty hours of incubation with the biotinylated peptides (100 μM) or vehicle, rings were placed in a dish and washed twice with PBS (twenty minutes each time) with light shaking, in order to eliminate the excess of biopeptide that could deposit over the tissue. Then the rings were embedded in OCT medium and cross sections ([…] thickness) were obtained for staining with an avidin-horseradish peroxidase complex and reactivity was detected with 3-amino-9-ethylcarbazole (AEC).

prostacyclin production = assay: Prostacyclin release from mouse aortic rings (6-keto-PGF1α by EIA); conditions: ibuprofen 10 μM
Procedure: To further test the specificity of AP-Cav, Ach-induced prostacyclin production was measured. For measurement of prostacyclin release, after twenty hour incubation period, aortic segments (4-5 mm) were placed in sterile 48-well tissue culture plates with 300 μl of KHS at 37° C. for thirty minutes in an incubator. Then aliquots of […] were taken in order to measure the basal release of prostacyclin. Ach (1 μM) was added and the plate was kept in the incubator for an additional thirty minutes. Aliquots were then taken in order to measure the Ach-stimulated release of prostacyclin. This protocol was performed in absence or in presence of ibuprofen (10 μM). The aliquots were frozen and prostacyclin release was measured as the stable breakdown product, 6-keto-PGF1α, by EIA (Amersham).

isolated mouse aorta = assay: Ach-induced relaxation of isolated mouse aortic rings (organ bath); conditions: AP alone 30 μM, twenty hours incubation
Procedure: For isolated mouse aortic rings preparations, male C57 black mice (5-7 weeks of age) were anesthetized with methoxyflurane and sacrificed by exsanguination. The thoracic aorta was dissected and cut into cylindrical segments of three millimeters in length. Using a sterile 48-well tissue culture plate, each ring was incubated in a total volume of one ml with either peptides or vehicle (DMSO) diluted in DMEM supplemented with penicillin (100 units/ml), streptomycin (100 μg/ml) and L-glutamine (1 mM). The plate was incubated with 5% CO2. Following incubation with the peptides (one, six, twelve or twenty hours), rings were washed in oxygenated (95% O2-5% CO2) Krebs-Henseleit bicarbonate buffer solution (KHS) of the following composition (NaCl—118.3 mmol/L, KCl—4.7 mmol/L, CaCl2—2.5 mmol/L, MgSO4—1.2 mmol/L, KH2PO4—1.2 mmol/L, NaHCO3—25 mmol/L, glucose—5.6 mmol/L at 37° C. with ibuprofen (10 μM). The rings were suspended by two tungsten wires ([…] thickness) inserted into the lumen and mounted in a vessel myograph system (five ml chamber, Kent Scientific). The mouse aortas were submitted to a resting tension of 1.5 grams and isometric tension was recorded using a force transducer coupled to a MacLab data acquisition system. […] In some experiments concentration-response curves to the contractile effects of PE were monitored.

isolated mouse aortas = assay: Sodium nitroprusside induced (endothelium independent) relaxation of mouse aorta; conditions: AP 30 μM, twenty hours; SNP 10 μM
[1] = Systemic arterial blood pressure and heart rate in mice; type: in vivo, mouse
[2] = conditions of the edema study, n=4 mice

CC[C@H](C)[C@H](NC(=O)CNC(=O)[C@H](Cc1c[nH]c2ccccc12)NC(=O)[C@H](CCCCN)NC(=O)[C@H](CCCCN)NC(=O)[C@H](Cc1c[nH]c2ccccc12)NC(=O)[C@H](CCCCN)NC(=O)[C@H](CCSC)NC(=O)[C@H](CCCNC(=N)N)NC(=O)[C@H](CCCNC(=N)N)NC(=O)[C@H](CC(N)=O)NC(=O)[C@H](CCC(N)=O)NC(=O)[C@H](Cc1ccccc1)NC(=O)[C@H](Cc1c[nH]c2ccccc12)NC(=O)[C@@H](NC(=O)[C@H](CCCCN)NC(=O)[C@@H](NC(=O)[C@H](CCC(N)=O)NC(=O)[C@H](CCCNC(=N)N)NC(=O)CCCCCNC(=O)CCCC[C@@H]1SC[C@@H]2NC(=O)N[C@@H]21)[C@@H](C)CC)[C@@H](C)CC)C(=O)N[C@@H](CC(=O)O)C(=O)N[C@@H](CCCCN)C(=O)N[C@@H](C)C(=O)N[C@@H](Cc1ccccc1)C(=O)N[C@@H](Cc1ccccc1)C(=O)N[C@H](C(=O)N[C@H](C(=O)N[C@@H](CO)C(=O)N[C@H](C(=O)N[C@H](C(=O)N[C@H](C(=O)N[C@@H](Cc1ccc(O)cc1)C(=O)N[C@@H](CCCCN)C(=O)N[C@@H](Cc1c[nH]c2ccccc12)C(=O)N[C@@H](Cc1ccccc1)C(=O)N[C@@H](CCCNC(=N)N)C(=O)N[C@@H](Cc1ccc(O)cc1)C(=O)O)[C@@H](C)O)C(C)C)[C@@H](C)O)[C@@H](C)O)[C@@H](C)O [Biot-AP-Cav-X] (HELM PEPTIDE1{[O=C1N[C@H]2[C@H](CS[C@H]2CCCCC(=O)[*:2])N1].[O=C(CCCCCN[*:1])[*:2]].R.Q.I.K.I.W.F.Q.N.R.R.M.K.W.K.K.W.G.I.D.K.A.F.F.T.T.S.T.V.T.Y.K.W.F.R.Y}$$$$V2.0; N-terminus and C-terminus assumed)
uptake into the vessel wall (mouse aorta): uptake of both AP-Cav and AP-Cav-X into the endothelium and adventitial lining of the vessel

CC[C@H](C)[C@H](NC(=O)CNC(=O)[C@H](CC(=O)O)NC(=O)[C@H](CCCCN)NC(=O)[C@H](CCCCN)NC(=O)[C@H](Cc1c[nH]c2ccccc12)NC(=O)[C@H](CCCCN)NC(=O)[C@H](CCSC)NC(=O)[C@H](CCCNC(=N)N)NC(=O)[C@H](CCCNC(=N)N)NC(=O)[C@H](CC(N)=O)NC(=O)[C@H](CCC(N)=O)NC(=O)[C@H](Cc1ccccc1)NC(=O)[C@H](Cc1c[nH]c2ccccc12)NC(=O)[C@@H](NC(=O)[C@H](CCCCN)NC(=O)[C@@H](NC(=O)[C@H](CCC(N)=O)NC(=O)[C@H](CCCNC(=N)N)NC(=O)CCCCCNC(=O)CCCC[C@@H]1SC[C@@H]2NC(=O)N[C@@H]21)[C@@H](C)CC)[C@@H](C)CC)C(=O)N[C@@H](Cc1c[nH]c2ccccc12)C(=O)N[C@@H](CCCCN)C(=O)N[C@@H](C)C(=O)N[C@@H](CO)C(=O)N[C@@H](Cc1ccccc1)C(=O)N[C@H](C(=O)N[C@H](C(=O)N[C@@H](Cc1ccccc1)C(=O)N[C@H](C(=O)N[C@H](C(=O)N[C@H](C(=O)N[C@@H](CCCCN)C(=O)N[C@@H](Cc1ccc(O)cc1)C(=O)N[C@@H](Cc1c[nH]c2ccccc12)C(=O)N[C@@H](Cc1ccccc1)C(=O)N[C@@H](Cc1ccc(O)cc1)C(=O)N[C@@H](CCCNC(=N)N)C(=O)O)[C@@H](C)O)C(C)C)[C@@H](C)O)[C@@H](C)O)[C@@H](C)O [Biot-AP-Cav] (HELM PEPTIDE1{[O=C1N[C@H]2[C@H](CS[C@H]2CCCCC(=O)[*:2])N1].[O=C(CCCCCN[*:1])[*:2]].R.Q.I.K.I.W.F.Q.N.R.R.M.K.W.K.K.D.G.I.W.K.A.S.F.T.T.F.T.V.T.K.Y.W.F.Y.R}$$$$V2.0; N-terminus and C-terminus assumed)
uptake into the vessel wall (mouse aorta): uptake of both AP-Cav and AP-Cav-X into the endothelium and adventitial lining of the vessel

CC(C)Cc1ccc(C(C)C(=O)O)cc1 (centres unmarked) [ibuprofen]
Ach-induced prostacyclin production (6-keto-PGF1α) (prostacyclin production): abolished

AP: Antennapedia internalization sequence (RQIKIWFQNRRMKWKK), SEQ ID NO: 10, alone (Drosophila melanogaster; DOMAIN (1)..(16) Homeodomain, internalization sequence)
effect on Ach-induced relaxation (isolated mouse aorta): did not influence Ach-induced relaxation; also recorded: does not affect Ach induced relaxations | effect on vasorelaxant properties of sodium nitroprusside (isolated mouse aortas): had no effect

RQIKIWFQNRRMKWKKDGIWKASFTTFTVTKYWFYR [AP-Cav]
heart rate [1, 2]: 320±29 beats per minute | systemic arterial blood pressure [1, 2]: 80±7 mm Hg | effect on blood pressure when delivered in vivo ([1]; preliminary evidence): do not increase blood pressure
